Assay: xn = mol fraction of the nth substance listed
Conditions: 100 kPa, Liquid; for viscosity: Concentric cylinders viscometry; for mass density: Vibrating tube method

COCOCOCOCOC [2,4,6,8,10-pentaoxaundecane] + COCOCOCOC
Conditions | mass density [kg/m3] | viscosity [mPa·s]
288.15 K, x2 = 0 | 1078.8 | 2.207
288.15 K, x2 = 0.12 | 1074.7 | 2.085
288.15 K, x2 = 0.24 | 1070.3 | 1.982
288.15 K, x2 = 0.35 | 1065.8 | 1.899
288.15 K, x2 = 0.45 | 1061.1 | 1.83
288.15 K, x2 = 0.55 | 1056.3 | 1.769
288.15 K, x2 = 0.65 | 1051.8 | 1.707
288.15 K, x2 = 0.74 | 1047.6 | 1.642
288.15 K, x2 = 0.83 | 1043.9 | 1.553
288.15 K, x2 = 0.86 | 1042.2 | –
288.15 K, x2 = 0.92 | 1039.9 | 1.442
288.15 K, x2 = 0.96 | 1039.1 | –
293.15 K, x2 = 0 | 1073.3 | 2.015
293.15 K, x2 = 0.12 | 1069.2 | 1.895
293.15 K, x2 = 0.24 | 1065.1 | 1.798
293.15 K, x2 = 0.35 | 1061 | 1.724
293.15 K, x2 = 0.45 | 1056.7 | 1.663
293.15 K, x2 = 0.55 | 1052.2 | 1.606
293.15 K, x2 = 0.65 | 1047.5 | 1.556
293.15 K, x2 = 0.74 | 1043.1 | 1.494
293.15 K, x2 = 0.83 | 1038.9 | 1.412
293.15 K, x2 = 0.86 | 1036.6 | –
293.15 K, x2 = 0.92 | 1034.6 | 1.311
293.15 K, x2 = 0.96 | 1032.4 | –
298.15 K, x2 = 0 | 1068.2 | 1.848
298.15 K, x2 = 0.12 | 1064.2 | 1.729
298.15 K, x2 = 0.24 | 1060 | 1.639
298.15 K, x2 = 0.35 | 1055.5 | 1.574
298.15 K, x2 = 0.45 | 1051.3 | 1.523
298.15 K, x2 = 0.55 | 1047.1 | 1.472
298.15 K, x2 = 0.65 | 1043.1 | 1.429
298.15 K, x2 = 0.74 | 1038.5 | 1.374
298.15 K, x2 = 0.83 | 1034.1 | 1.3
298.15 K, x2 = 0.86 | 1031.3 | –
298.15 K, x2 = 0.92 | 1029.3 | 1.21
298.15 K, x2 = 0.96 | 1026.3 | –
303.15 K, x2 = 0 | 1063.4 | 1.703
303.15 K, x2 = 0.12 | 1059.7 | 1.582
303.15 K, x2 = 0.24 | 1055.1 | 1.496
303.15 K, x2 = 0.35 | 1050.5 | 1.437
303.15 K, x2 = 0.45 | 1046.1 | 1.394
303.15 K, x2 = 0.55 | 1041.8 | 1.354
303.15 K, x2 = 0.65 | 1038 | 1.319
303.15 K, x2 = 0.74 | 1033.9 | 1.273
303.15 K, x2 = 0.83 | 1029.5 | 1.217
303.15 K, x2 = 0.86 | 1026.8 | –
303.15 K, x2 = 0.92 | 1024.2 | 1.139
303.15 K, x2 = 0.96 | 1020.7 | –
308.15 K, x2 = 0 | 1059.1 | 1.576
308.15 K, x2 = 0.12 | 1055.5 | 1.448
308.15 K, x2 = 0.24 | 1050.8 | 1.366
308.15 K, x2 = 0.35 | 1046.2 | 1.313
308.15 K, x2 = 0.45 | 1041.8 | 1.28
308.15 K, x2 = 0.55 | 1037.5 | 1.248
308.15 K, x2 = 0.65 | 1033.7 | 1.23
308.15 K, x2 = 0.74 | 1029.8 | 1.192
308.15 K, x2 = 0.83 | 1025.5 | 1.149
308.15 K, x2 = 0.86 | 1022.6 | –
308.15 K, x2 = 0.92 | 1019.8 | 1.087
308.15 K, x2 = 0.96 | 1015.6 | –
313.15 K, x2 = 0 | 1055.2 | 1.464
313.15 K, x2 = 0.12 | 1051.7 | 1.331
313.15 K, x2 = 0.24 | 1047.2 | 1.252
313.15 K, x2 = 0.35 | 1042.8 | 1.207
313.15 K, x2 = 0.45 | 1038.2 | 1.18
313.15 K, x2 = 0.55 | 1034.2 | 1.155
313.15 K, x2 = 0.65 | 1030.3 | 1.143
313.15 K, x2 = 0.74 | 1026.4 | 1.121
313.15 K, x2 = 0.83 | 1022.1 | 1.092
313.15 K, x2 = 0.86 | 1018.9 | –
313.15 K, x2 = 0.92 | 1016.2 | 1.044
313.15 K, x2 = 0.96 | 1011.6 | –

Reference: the NIST ThermoML archive (doi:10.1016/j.jct.2017.06.002)
